Literature values in article PMC8481536, “Wells–Dawson phosphotungstates as mushroom tyrosinase inhibitors: a speciation study” (Scientific Reports, 2021).

Target: T1, AbPPO4 (Agaricus bisporus, UniProt C7FF05, S179N/V121A)
T1 construct: GST (glutathione-S-transferase) (N, cleaved yes); made in house; host or cells: E. coli BL21(DE3)
Details: cited from earlier work

T1 sequence (C7FF05 1-383 V121A/S179N): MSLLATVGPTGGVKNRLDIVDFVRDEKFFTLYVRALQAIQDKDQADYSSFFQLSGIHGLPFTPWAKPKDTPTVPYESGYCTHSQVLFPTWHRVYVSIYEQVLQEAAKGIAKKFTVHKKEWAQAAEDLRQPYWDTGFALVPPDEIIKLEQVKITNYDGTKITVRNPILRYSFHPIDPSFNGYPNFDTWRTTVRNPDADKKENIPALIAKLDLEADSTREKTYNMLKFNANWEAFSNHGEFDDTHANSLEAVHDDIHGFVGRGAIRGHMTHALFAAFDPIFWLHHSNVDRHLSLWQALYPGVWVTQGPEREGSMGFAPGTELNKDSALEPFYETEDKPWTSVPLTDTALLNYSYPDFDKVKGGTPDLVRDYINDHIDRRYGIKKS

For `N[C@@H](Cc1ccc(O)c(O)c1)C(=O)O` [L-DOPA, L-3,4−dihydroxyphenylalanine], the Km is given as 26.1 mM.
